Assay results from ChEMBL document CHEMBL1201862, “PubChem BioAssay data set” (2004).
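96-well plates; 48 h exposure; 5 concentrations. Endpoints by linear interpolation between flanking doses. Not reached: highest tested concentration assigned. At the GI50, growth is halved.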 Calls of active or inactive are those of the source. Cut-off read from the data, not from the text of the source: active = GI50 up to about 1.1 µM and inactive = higher.

Columns and labels:
Experiment in all cases: NCI-60 cell line screen, 48 h
[1] = tested on: SN12C
[2] = tested on: HL-60
[3] = tested on: T47D
[4] = tested on: SF-268
[5] = tested on: HCT-116
[6] = tested on: UACC-62
[7] = tested on: HCC 2998
[8] = tested on: MDA-MB-435
[9] = tested on: OVCAR-5
[10] = tested on: SF-295
[11] = tested on: TK-10
[12] = tested on: M14
[13] = tested on: OVCAR-3
[14] = tested on: K562
[15] = tested on: KM12
[16] = tested on: A549
[17] = tested on: DU-145
[18] = tested on: MOLT-4
[19] = tested on: MDA-MB-231
[20] = tested on: SNB-75

Compound	GI50 [1]	GI50 [2]	GI50 [3]	GI50 [4]	GI50 [5]	GI50 [6]	GI50 [7]	GI50 [8]	GI50 [9]	GI50 [10]	GI50 [11]	GI50 [12]	GI50 [13]	GI50 [14]	GI50 [15]	GI50 [16]	GI50 [17]	GI50 [18]	GI50 [19]	GI50 [20]
COc1cc2c(cc1Cc1c(F)cccc1Cl)nc(-c1c(F)cccc1Cl)n2Cc1c(F)cccc1Cl	20.9 µM (inactive)	78.5 µM (inactive)	10.2 µM (inactive)	58.9 µM (inactive)	20 µM (inactive)	56.4 µM (inactive)	17.5 µM (inactive)	33.1 µM (inactive)	48.8 µM (inactive)	14 µM (inactive)	> 100 µM (inactive)	> 100 µM (inactive)	11.6 µM (inactive)	45.3 µM (inactive)	28.4 µM (inactive)	20.7 µM (inactive)	28.1 µM (inactive)	36 µM (inactive)	31.8 µM (inactive)	24.7 µM (inactive)
O=C(O)c1ccc(N2C=[N+]3C(=Nc4ccccc43)C2)cc1	> 100 µM (inactive)	> 100 µM (inactive)	> 100 µM (inactive)	> 100 µM (inactive)	> 100 µM (inactive)	> 100 µM (inactive)	> 100 µM (inactive)	> 100 µM (inactive)	> 100 µM (inactive)	> 100 µM (inactive)	> 100 µM (inactive)	> 100 µM (inactive)	> 100 µM (inactive)	> 100 µM (inactive)	> 100 µM (inactive)	> 100 µM (inactive)	> 100 µM (inactive)	–	> 100 µM (inactive)	62.7 µM (inactive)
COc1ccc2[nH]c(C(=O)N3CC(CCl)c4ccc([N+](=O)[O-])cc43)cc2c1 (stereo not drawn)	> 100 µM (inactive)	> 100 µM (inactive)	> 21.6 µM (inactive)	> 100 µM (inactive)	> 100 µM (inactive)	> 100 µM (inactive)	> 100 µM (inactive)	> 100 µM (inactive)	> 100 µM (inactive)	> 100 µM (inactive)	> 100 µM (inactive)	> 100 µM (inactive)	> 100 µM (inactive)	> 100 µM (inactive)	> 31.8 µM (inactive)	> 100 µM (inactive)	> 100 µM (inactive)	> 100 µM (inactive)	> 23.4 µM (inactive)	> 37.7 µM (inactive)
OC(CC(CC(O)(C(F)(F)Cl)C(F)(F)Cl)=NNc1ccccc1)(C(F)(F)Cl)C(F)(F)Cl	3.36 µM (inactive)	> 10 µM (inactive)	4.11 µM (inactive)	2.55 µM (inactive)	1.98 µM (inactive)	1.66 µM (inactive)	4.23 µM (inactive)	3.57 µM (inactive)	3.66 µM (inactive)	2.91 µM (inactive)	3.88 µM (inactive)	4.26 µM (inactive)	2.77 µM (inactive)	> 10 µM (inactive)	3.12 µM (inactive)	3.41 µM (inactive)	3.3 µM (inactive)	> 10 µM (inactive)	2.78 µM (inactive)	2.71 µM (inactive)
CC12CC(C#N)(C#N)C(C#N)(CO1)C(=N)O2 (stereo not drawn)	> 100 µM (inactive)	44.2 µM (inactive)	> 100 µM (inactive)	> 100 µM (inactive)	64.3 µM (inactive)	24.9 µM (inactive)	> 100 µM (inactive)	> 100 µM (inactive)	> 100 µM (inactive)	> 100 µM (inactive)	> 100 µM (inactive)	> 100 µM (inactive)	> 100 µM (inactive)	75.7 µM (inactive)	> 100 µM (inactive)	> 100 µM (inactive)	> 100 µM (inactive)	54.3 µM (inactive)	> 100 µM (inactive)	> 100 µM (inactive)
CCOC(=O)C(NC(=O)c1ccccc1)(Nc1ccc(S(=O)(=O)Nc2ccc(OC)nn2)cc1)C(F)(F)F (stereo not drawn)	> 100 µM (inactive)	> 100 µM (inactive)	> 100 µM (inactive)	> 100 µM (inactive)	> 100 µM (inactive)	> 100 µM (inactive)	> 100 µM (inactive)	> 100 µM (inactive)	> 100 µM (inactive)	> 100 µM (inactive)	> 100 µM (inactive)	> 100 µM (inactive)	> 100 µM (inactive)	> 100 µM (inactive)	> 100 µM (inactive)	> 100 µM (inactive)	> 100 µM (inactive)	> 100 µM (inactive)	> 100 µM (inactive)	> 100 µM (inactive)
O=c1[nH]c(=O)c2c3n(cc2[nH]1)CCCCC3	> 100 µM (inactive)	> 100 µM (inactive)	> 100 µM (inactive)	> 100 µM (inactive)	> 100 µM (inactive)	> 100 µM (inactive)	> 100 µM (inactive)	> 100 µM (inactive)	> 100 µM (inactive)	> 100 µM (inactive)	17.5 µM (inactive)	> 100 µM (inactive)	–	> 100 µM (inactive)	> 100 µM (inactive)	> 100 µM (inactive)	> 100 µM (inactive)	> 100 µM (inactive)	64.4 µM (inactive)	> 100 µM (inactive)
CN(C)c1ccc(/N=N\c2cccc3ccoc23)cc1	> 75 µM (inactive)	23.8 µM (inactive)	61.7 µM (inactive)	> 100 µM (inactive)	69.2 µM (inactive)	> 100 µM (inactive)	60.8 µM (inactive)	> 94.2 µM (inactive)	> 100 µM (inactive)	98.6 µM (inactive)	56.5 µM (inactive)	> 40.8 µM (inactive)	38.4 µM (inactive)	44.8 µM (inactive)	> 73.1 µM (inactive)	> 71.9 µM (inactive)	> 100 µM (inactive)	17.1 µM (inactive)	> 76.9 µM (inactive)	> 84.3 µM (inactive)
O=C(Nc1ccccc1)c1cc2c(cc1Cl)Sc1nccn1S2(=O)=O	46.1 µM (inactive)	15.8 µM (inactive)	19.1 µM (inactive)	25.2 µM (inactive)	12.1 µM (inactive)	17.6 µM (inactive)	18.5 µM (inactive)	14.8 µM (inactive)	27.2 µM (inactive)	41.5 µM (inactive)	34.5 µM (inactive)	16 µM (inactive)	21.4 µM (inactive)	28.2 µM (inactive)	18.6 µM (inactive)	36.4 µM (inactive)	18.9 µM (inactive)	15.6 µM (inactive)	27 µM (inactive)	17.7 µM (inactive)
ClC(Cl)=C1C(=C(Cl)Cl)C(Cl)(Cl)C1(Cl)Cl	–	0.625 µM (active)	4.92 µM (inactive)	2.21 µM (inactive)	1.36 µM (inactive)	1.95 µM (inactive)	4.78 µM (inactive)	2.71 µM (inactive)	2.64 µM (inactive)	2.48 µM (inactive)	3.52 µM (inactive)	1.06 µM (active)	4.31 µM (inactive)	0.443 µM (active)	4.9 µM (inactive)	9.51 µM (inactive)	10.7 µM (inactive)	0.126 µM (active)	2.4 µM (inactive)	3.18 µM (inactive)
CSc1c(C#N)c(S)[nH]c(=O)c1C#N	85.5 µM (inactive)	1.85 µM (inactive)	24.9 µM (inactive)	32.7 µM (inactive)	34.4 µM (inactive)	21.2 µM (inactive)	36.2 µM (inactive)	20.6 µM (inactive)	> 100 µM (inactive)	–	23.2 µM (inactive)	24.5 µM (inactive)	33.8 µM (inactive)	18.1 µM (inactive)	65.8 µM (inactive)	40.7 µM (inactive)	48 µM (inactive)	33 µM (inactive)	42.8 µM (inactive)	32.1 µM (inactive)
Brc1c(C#CCC2CCCCC2)ccc(C#CCC2CCCCC2)c1Br	> 100 µM (inactive)	> 100 µM (inactive)	> 100 µM (inactive)	> 100 µM (inactive)	–	> 100 µM (inactive)	> 100 µM (inactive)	> 100 µM (inactive)	> 100 µM (inactive)	> 100 µM (inactive)	> 100 µM (inactive)	> 100 µM (inactive)	> 100 µM (inactive)	> 100 µM (inactive)	> 100 µM (inactive)	> 100 µM (inactive)	> 100 µM (inactive)	> 100 µM (inactive)	> 100 µM (inactive)	> 100 µM (inactive)
Cc1c(/N=N/c2ccccc2)c(-c2ccccc2)n(C2OC(CO)C(O)C(O)C2O)c(=S)c1C#N (stereo not drawn)	6.22 µM (inactive)	3.66 µM (inactive)	0.245 µM (active)	8.38 µM (inactive)	–	3.6 µM (inactive)	5.3 µM (inactive)	4.98 µM (inactive)	13.8 µM (inactive)	6.71 µM (inactive)	9.29 µM (inactive)	6.5 µM (inactive)	4.56 µM (inactive)	3.21 µM (inactive)	2.98 µM (inactive)	5.83 µM (inactive)	6.17 µM (inactive)	1.95 µM (inactive)	10 µM (inactive)	2.72 µM (inactive)
Fc1ccc(/C=C2\COCC3=C2NC(=S)NC3c2ccc(F)cc2)cc1 (stereo not drawn)	18.5 µM (inactive)	10.5 µM (inactive)	26.1 µM (inactive)	17.7 µM (inactive)	17.3 µM (inactive)	17.2 µM (inactive)	18.5 µM (inactive)	18.8 µM (inactive)	21.1 µM (inactive)	18.7 µM (inactive)	22.1 µM (inactive)	16.4 µM (inactive)	17.8 µM (inactive)	19 µM (inactive)	24.4 µM (inactive)	–	26.5 µM (inactive)	20 µM (inactive)	18.5 µM (inactive)	22.2 µM (inactive)
